In ChEMBL document CHEMBL4130565, “Consequences of Depsipeptide Substitution on the ClpP Activation Activity of Antibacterial Acyldepsipeptides” (ACS Med Chem Lett, 2017):
“And” between values parts separate entries of the source, which are not always exact repeats. Equal entries are not always repeated. Where a SMILES comes first, the peptide text is derived from it. Bridges are numbered along the chain shown (N, C = ends). [ ]: non-standard residue; d: D form. The star is where a group is joined. Phe(3,5-F2) = N[C@@H](Cc1cc(F)cc(F)c1)C(=O)O; Heptenoyl(2E) = CCCC/C=C/C(=O)*; NMeA = CN[C@@H](C)C(=O)O; Dap = NC[C@H](N)C(=O)O

Assays:
[1] = target: ATP-dependent Clp protease proteolytic subunit (Bacillus subtilis (strain 168)) (UniProt P80244); assay: Activation of Bacillus subtilis ClpP expressed in Escherichia coli BL21(DE3) using Abz-DFAPKMALVPYNO2 as substrate pretreated for 15 mins followed by substrate addition measured every 30 mins for 2 hrs by fluorescence assay
Sequence of ATP-dependent Clp protease proteolytic subunit (Bacillus subtilis (strain 168)) (P80244 whole entry, looked up): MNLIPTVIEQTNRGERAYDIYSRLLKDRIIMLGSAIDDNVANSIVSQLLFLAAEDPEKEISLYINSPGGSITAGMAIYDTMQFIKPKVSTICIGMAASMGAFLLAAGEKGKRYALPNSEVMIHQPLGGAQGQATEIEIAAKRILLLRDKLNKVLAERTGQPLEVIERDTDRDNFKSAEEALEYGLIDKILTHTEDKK

Bacillus subtilis = assay: Antibacterial activity against Bacillus subtilis ATCC 6051 after 16 hrs by microdilution method; assay type: functional; conditions: ATCC 6051, 16 h
[2] = target: ATP-dependent Clp protease proteolytic subunit (Bacillus subtilis (strain 168)) (UniProt P80244); assay: Stabilization of Bacillus subtilis ClpP assessed as change in melting temperature at 50 uM after 30 mins by SYPRO orange protein gel staining based FRET analysis
[3] = Half life in CD3OD assessed as hydrogen-deuterium exchange by 1H-NMR analysis; assay type: physicochemical

| SMILES | Kapp [1] | MIC (Bacillus subtilis) | ΔTm [2] | half-life [3] |
| --- | --- | --- | --- | --- |
| CCCC/C=C/C(=O)N[C@@H](Cc1cc(F)cc(F)c1)C(=O)N[C@H]1CN(C)C(=O)[C@@H]2CCCN2C(=O)[C@H](C)NC(=O)[C@H](C)N(C)C(=O)[C@@H]2CCCN2C1=O | 4.39 µM | > 25 µM and > 18.6 µg/mL | 12.7 °C | < 4 min |
| CCCC/C=C/C(=O)N[C@@H](Cc1cc(F)cc(F)c1)C(=O)N[C@H]1COC(=O)[C@@H]2CCCN2C(=O)[C@H](C)NC(=O)[C@H](C)N(C)C(=O)[C@@H]2CCCN2C1=O ({Heptenoyl(2E)}-[Phe(3,5-F2)]SP[NMeA]AP; ester 2-C) | 0.037 µM | 0.037 µM and 0.027 µg/mL | 29.1 °C | 38 min |
| CCCC/C=C/C(=O)N[C@@H](Cc1cc(F)cc(F)c1)C(=O)N[C@H]1CNC(=O)[C@@H]2CCCN2C(=O)[C@H](C)NC(=O)[C@H](C)N(C)C(=O)[C@@H]2CCCN2C1=O ({Heptenoyl(2E)}-[Phe(3,5-F2)][Dap]P[NMeA]AP; lactam 2-C) | 0.085 µM | 6.25 µM and 4.6 µg/mL | 22.8 °C | < 4 min |
